Measurements from patent publication US5298513A, “Substituted basic 2-aminotetralin in pharmaceuticals” (Bayer Aktiengesellschaft, priority 1986, dated 1994).
Where a name gives a salt, the structure may show the parent alone.

Legend:
5-HT1 receptor = experiment: Affinity to the 5-HT1 receptor (receptor binding, calf hippocampus membrane preparations, 3H-serotonin); details: calf hippocampus membranes, 3H-serotonin radioligand
Protocol: A.) Affinity to the 5-HT1 Receptor […] The values specified are data which were determined from receptor binding studies using calf hippocampus membrane preparations. 3H-serotonin was used for this purpose as radioactively labelled ligand.

[1] = system: contraction, caused by serotonin, of the arteria basilaris; experiment: Serotonin-agonistic/antagonistic action on the contraction, caused by serotonin, of the arteria basilaris of the dog; assay type: cell-based; details: for Effect antagonistic: suppression of serotonin-induced contraction after pre-treatment; for Effect agonistic: serotonin-mimetic contraction
Description: B.) Investigation of the serotonin-agonistic/antagonistic action
To this purpose, the action on the contraction, caused by serotonin, of the arteria basilaris of the dog is investigated [cf. Peroutka et al., Brain Research 259, 327 (1983)].
In this test model, an agonistic action can be detected by the serotonin-mimetic action (contraction).

Compound | Ki (5-HT1 receptor) [nM] | Effect antagonistic [1] | Effect agonistic [1]
CCCN(CCN(CC)CC)C1CCc2cccc(OC)c2C1 (stereo not drawn) [Example 20, 2-[N-(2-Diethylaminoethyl)-N-propyl]amino-8-methoxy-1,2,3,4-tetrahydronaphthalene dihydrochloride] | 11 |  | 
CCCN(CCNC(=O)OCC)C1CCc2cccc(OC)c2C1 (stereo not drawn) [Example 22, 2-[N-(2-Ethoxycarbonylamido-ethyl)-N-propyl]amino-8-methoxy-1,2,3,4-tetrahydronaphthalene hydrochloride] | 3 | 0 | 
CCCN(CC#N)C1CCc2cccc(OC)c2C1 (stereo not drawn) [Example 26, 2-(N-Cyanomethyl-N-propyl)amino-8-methoxy-1,2,3,4-tetrahydronaphthalene hydrochloride] | 2 |  | 
CCCN(CCCCN1C(=O)c2ccccc2S1(=O)=O)C1CCc2cccc(OC)c2C1.Cl (stereo not drawn) [Example 34, 2-{4-[N-(8-Methoxy-1,2,3,4-tetrahydro-2-naphthyl)-N-propyl-amino]butyl}-1,2-benzisothiazol-3(2H)-one 1,1-dioxide hydrochloride] | 1 |  | 0
CCCN(CCO)C1CCc2cccc(OC)c2C1 (stereo not drawn) [Example 42, 2-[N-(2-Hydroxyethyl)-N-propyl]amino-8-methoxy-1,2,3,4-tetrahydronaphthalene] | 4 |  | 
CCCN(CCNS(=O)(=O)c1ccc(C)cc1)C1CCc2cccc(OC)c2C1 (stereo not drawn) [Example 45, 8-Methoxy-2-{N-[2-(4-toluene-sulphonamido)ethyl]-N-propyl}amino-1,2,3,4-tetrahydronaphthalene hydrochloride] | 1 |  | 0
CCCN(CCN1CCCCS1(=O)=O)C1CCc2cccc(OC)c2C1 (stereo not drawn) [Example 58, 2-[2-N-Propyl-N-(8-methoxy-1,2,3,4-tetrahydro-2-naphthyl)-amino]ethyl-perhydro-1,2-thiazine 1,1-dioxide hydrochloride] | 4 |  | 
CCCN(CCCNC(=O)c1cccnc1)C1CCc2cccc(OC)c2C1 (stereo not drawn) [Example 62, dihydrochloride] | 4 |  | 
CCCN(CCC)C1CCc2cccc(O)c2C1 (stereo not drawn) [R^1 = H, R^2 = nC3 H7, R^3 = nC3 H7, reference compound] |  | 0 | 
